Experiments:
Test in all cases: 3H-thymidine assay
Assay type in all cases: cell-based
Daudi leukemic cells = conditions: Homo sapiens
CAKI-2 cells = conditions: Homo sapiens, CAKI-2
How it was run: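 This antiproliferative test measured 3H-thymidine insertion into tumor cells. Each well of a 24-well plate received 10^4 cells, which reached half-confluence after roughly 48 hours and were then switched to medium containing the active substance. Cultures were rinsed twice with cold PBS and precipitated with 5% trichloroacetic acid at 4° C for one hour. After a PBS wash, radioactivity was solubilized in 0.3M NaOH and counted. Inhibition was expressed relative to untreated controls.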

A-375 melanoma cells = conditions: Homo sapiens, A-375
[1] = tested on: GV-1 prostate carcinoma cells
[2] = tested on: Z-R-75-1 breast cancer cells; conditions: Homo sapiens, ZR-75-1
[3] = tested on: MCF-7 breast cancer cells; conditions: Homo sapiens, MCF7
How it was run: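 MCF-7 cells were plated at 10^4 cells per well in 24-well plates and, once roughly half-confluent after approximately 48 hours, exposed to compound-containing medium. Growth inhibition was assessed from 3H-thymidine insertion relative to untreated controls: cultures were washed twice in ice-cold PBS, acid-insoluble label was precipitated with 5% trichloroacetic acid (one hour, 4° C), dissolved in 0.3M NaOH and counted. The concentration giving 50% inhibition of insertion was determined.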

CAKI-1 cells = conditions: Homo sapiens, CAKI-1
How it was run: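 Antiproliferative activity against CAKI-1 cells was measured by 3H-thymidine incorporation. After washing in PBS, precipitated radioactivity was solubilized in 0.3M NaOH and counted. Incorporation in substance-treated cells was compared with untreated controls to assess growth inhibition, and the substance concentration giving 50% inhibition of 3H-thymidine insertion was found.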

K-562 leukemic cells = conditions: Homo sapiens, K562
How it was run: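 K562 human leukemic cells were inoculated into 24-well plates (10^4 cells/well) and allowed roughly 48 hours to reach half-confluence, after which the medium was swapped for one containing the test agent. Cultures were washed twice in cold PBS, acid-precipitable 3H-radioactivity was fixed with 5% trichloroacetic acid at 4° C for one hour, solubilized in 0.3M NaOH and counted; inhibition was derived relative to untreated cells.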

At T 20 = conditions: Mus musculus, AtT20
How it was run: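 In this antiproliferative test, AtT20 cells were plated at 10^4 per well in 24-well plates and, once roughly half-confluent after approximately 48 hours, switched to medium containing compound. After two ice-cold PBS washes, incorporated label was precipitated with 5% trichloroacetic acid (one hour, 4° C), dissolved in 0.3M NaOH and measured. Thymidine insertion was compared with untreated controls to estimate growth inhibition.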

[4] = 1 μM/ml, read-out: 3H-thymidine tracer (%) of control
[5] = 2 μM/ml, read-out: 3H-thymidine tracer (%) of control
[6] = 4 μM/ml, read-out: 3H-thymidine tracer (%) of control
[7] = 8 μM/ml, read-out: 3H-thymidine tracer (%) of control
[8] = 16 μM/ml, read-out: 3H-thymidine tracer (%) of control
[9] = 25 μM/ml, read-out: 3H-thymidine tracer (%) of control
[10] = 50 μM/ml, read-out: 3H-thymidine tracer (%) of control
[11] = 100 μM/ml, read-out: 3H-thymidine tracer (%) of control
[12] = 250 μM/ml, read-out: 3H-thymidine tracer (%) of control
[13] = 500 μM/ml, read-out: 3H-thymidine tracer (%) of control
[14] = Table 4, read-out: active substance concentration at which 3H-thymidine insertion was 50% inhibited
[15] = 150 μM/ml, read-out: 3H-thymidine tracer (%) of control
[16] = Table 4, *: maximum usable dosage, no 50% inhibition, read-out: active substance concentration at which 3H-thymidine insertion was 50% inhibited

O=c1ccc2cc(O)c(O)cc2o1 [Esculetin, 6,7-hydroxy-1,2-benzopyrone]
activity at 1 µM (Daudi leukemic cells; [4]): 94%
activity at 2 µM (Daudi leukemic cells; [5]): 96%
activity at 4 µM (Daudi leukemic cells; [6]): 83%
activity at 8 µM (Daudi leukemic cells; [7]): 75%
activity at 16 µM (Daudi leukemic cells; [8]): 69%
activity at 25 µM (Daudi leukemic cells; [9]): 63%
activity at 50 µM (Daudi leukemic cells; [10]): 61%
activity at 100 µM (Daudi leukemic cells; [11]): 57%
activity at 250 µM (Daudi leukemic cells; [12]): 54%
activity at 500 µM (Daudi leukemic cells; [13]): 39%
IC50 (Daudi leukemic cells; [14]): 250 µM
activity at 1 µM (CAKI-2 cells; [4]): 98%
activity at 2 µM (CAKI-2 cells; [5]): 94%
activity at 4 µM (CAKI-2 cells; [6]): 90%
activity at 8 µM (CAKI-2 cells; [7]): 87%
activity at 16 µM (CAKI-2 cells; [8]): 82%
activity at 25 µM (CAKI-2 cells; [9]): 69%
activity at 50 µM (CAKI-2 cells; [10]): 65%
activity at 100 µM (CAKI-2 cells; [11]): 54%
activity at 150 µM (CAKI-2 cells; [15]): 53%
activity at 500 µM (CAKI-2 cells; [13]): 50%
IC50 (CAKI-2 cells; [16]): 500 µM
activity at 1 µM (A-375 melanoma cells; [4]): 98%
activity at 2 µM (A-375 melanoma cells; [5]): 91%
activity at 4 µM (A-375 melanoma cells; [6]): 89%
activity at 8 µM (A-375 melanoma cells; [7]): 84%
activity at 16 µM (A-375 melanoma cells; [8]): 75%
activity at 25 µM (A-375 melanoma cells; [9]): 70%
activity at 50 µM (A-375 melanoma cells; [10]): 65%
activity at 100 µM (A-375 melanoma cells; [11]): 63%
activity at 250 µM (A-375 melanoma cells; [12]): 59%
activity at 500 µM (A-375 melanoma cells; [13]): 55%
IC50 (A-375 melanoma cells; [16]): > 500 µM
activity at 1 µM [1, 4]: 97%
activity at 2 µM [1, 5]: 93%
activity at 4 µM [1, 6]: 88%
activity at 8 µM [1, 7]: 84%
activity at 16 µM [1, 8]: 78%
activity at 25 µM [1, 9]: 75%
activity at 50 µM [1, 10]: 63%
activity at 100 µM [1, 11]: 60%
activity at 250 µM [1, 12]: 58%
activity at 500 µM [1, 13]: 50%
IC50 [1, 14]: 500 µM
activity at 1 µM [2, 4]: 98%
activity at 2 µM [2, 5]: 96%
activity at 4 µM [2, 6]: 89%
activity at 8 µM [2, 7]: 84%
activity at 16 µM [2, 8]: 77%
activity at 25 µM [2, 9]: 70%
activity at 50 µM [2, 10]: 61%
activity at 100 µM [2, 11]: 53%
activity at 250 µM [2, 12]: 46%
activity at 500 µM [2, 13]: 39%
IC50 [2, 16]: 175 µM
activity at 1 µM [3, 4]: 100%
activity at 2 µM [3, 5]: 98%
activity at 4 µM [3, 6]: 92%
activity at 8 µM [3, 7]: 85%
activity at 16 µM [3, 8]: 76%
activity at 25 µM [3, 9]: 69%
activity at 50 µM [3, 10]: 64%
activity at 100 µM [3, 11]: 58%
activity at 250 µM [3, 12]: 50%
activity at 500 µM [3, 13]: 42%
IC50 [3, 16]: 250 µM
activity at 1 µM (CAKI-1 cells; [4]): 96%
activity at 2 µM (CAKI-1 cells; [5]): 93%
activity at 4 µM (CAKI-1 cells; [6]): 88%
activity at 8 µM (CAKI-1 cells; [7]): 80%
activity at 16 µM (CAKI-1 cells; [8]): 62%
activity at 25 µM (CAKI-1 cells; [9]): 58%
activity at 50 µM (CAKI-1 cells; [10]): 53%
activity at 100 µM (CAKI-1 cells; [11]): 45%
activity at 150 µM (CAKI-1 cells; [15]): 40%
activity at 500 µM (CAKI-1 cells; [13]): 32%
IC50 (CAKI-1 cells; [16]): 50 µM
activity at 1 µM (K-562 leukemic cells; [4]): 97%
activity at 2 µM (K-562 leukemic cells; [5]): 95%
activity at 4 µM (K-562 leukemic cells; [6]): 84%
activity at 8 µM (K-562 leukemic cells; [7]): 77%
activity at 16 µM (K-562 leukemic cells; [8]): 62%
activity at 25 µM (K-562 leukemic cells; [9]): 58%
activity at 50 µM (K-562 leukemic cells; [10]): 50%
activity at 100 µM (K-562 leukemic cells; [11]): 47%
activity at 250 µM (K-562 leukemic cells; [12]): 44%
activity at 500 µM (K-562 leukemic cells; [13]): 31%
IC50 (K-562 leukemic cells; [14]): 50 µM
activity at 1 µM (At T 20; [4]): 93%
activity at 2 µM (At T 20; [5]): 89%
activity at 4 µM (At T 20; [6]): 86%
activity at 8 µM (At T 20; [7]): 75%
activity at 16 µM (At T 20; [8]): 75%
activity at 25 µM (At T 20; [9]): 67%
activity at 50 µM (At T 20; [10]): 62%
activity at 100 µM (At T 20; [11]): 55%
activity at 250 µM (At T 20; [12]): 49%
activity at 500 µM (At T 20; [13]): 44%
IC50 (At T 20; [14]): 250 µM
